Experimental data: ChEMBL document CHEMBL3875216, “Synthesis of antimicrobial glucosamides as bacterial quorum sensing mechanism inhibitors” (Bioorg Med Chem, 2017)

Key:
[1] = tested on: Pseudomonas aeruginosa; assay: Growth inhibition of Pseudomonas aeruginosa MH602 at 2 mM after 8 hrs relative to control; settings: MH602, 8 h, read-out: GI
[2] = tested on: Pseudomonas aeruginosa; assay: Inhibition of LasR-dependent quorum sensing activity in Pseudomonas aeruginosa MH602 harboring GFP-fused […] LasB promoter assessed as inhibition of 3-oxo-dodecanoyl HSL-induced GFP expression at 500 uM measured after 24 hrs by fluorescence assay relative to control
[3] = tested on: Escherichia coli; assay: Inhibition of LuxR-dependent quorum sensing activity in Escherichia coli MT102 harboring pJBA132 assessed as inhibition of OHHL-induced GFP expression at 500 uM measured after 8 hrs by fluorescence assay relative to control
[4] = tested on: Pseudomonas aeruginosa; assay: Growth inhibition of Pseudomonas aeruginosa MH602 at 1 mM after 8 hrs relative to control; settings: MH602, 8 h, read-out: GI
[5] = tested on: Pseudomonas aeruginosa; assay: Growth inhibition of Pseudomonas aeruginosa PA14 at 2 mM after 24 hrs relative to control; settings: 2000 µM
[6] = tested on: Escherichia coli; assay: Growth inhibition of Escherichia coli MT102 at 1 mM after 8 hrs relative to control; settings: MT102, 8 h, read-out: GI
[7] = tested on: Pseudomonas aeruginosa; assay: Inhibition of LasR-dependent quorum sensing activity in Pseudomonas aeruginosa MH602 harboring GFP-fused […] LasB promoter assessed as inhibition of 3-oxo-dodecanoyl HSL-induced GFP expression at 500 uM measured after 8 hrs by fluorescence assay relative to control
[8] = tested on: Pseudomonas aeruginosa; assay: Inhibition of LasR-dependent quorum sensing activity in Pseudomonas aeruginosa MH602 harboring GFP-fused […] LasB promoter assessed as inhibition of 3-oxo-dodecanoyl HSL-induced GFP expression at 1 mM measured after 24 hrs by fluorescence assay relative to control
[9] = tested on: Escherichia coli; assay: Growth inhibition of Escherichia coli MT102 at 500 uM after 24 hrs relative to control; settings: MT102, 24 h, read-out: GI
[10] = tested on: Pseudomonas aeruginosa PA14; assay: Inhibition of quorum sensing-regulated biofilm formation in Pseudomonas aeruginosa PA14 at 2 mM after overnight incubation by crystal violet staining based assay relative to control
[11] = tested on: Escherichia coli; assay: Inhibition of LuxR-dependent quorum sensing activity in Escherichia coli MT102 harboring pJBA132 assessed as inhibition of OHHL-induced GFP expression at 2 mM measured after 24 hrs by fluorescence assay relative to control
[12] = tested on: Escherichia coli; assay: Growth inhibition of Escherichia coli MT102 at 500 uM after 8 hrs relative to control; settings: MT102, 8 h, read-out: GI
[13] = tested on: Escherichia coli; assay: Growth inhibition of Escherichia coli MT102 at 2 mM after 24 hrs relative to control; settings: MT102, 24 h, read-out: GI
[14] = tested on: Pseudomonas aeruginosa PA14; assay: Inhibition of quorum sensing-regulated pyocyanin production in Pseudomonas aeruginosa PA14 at 2 mM after 24 hrs relative to control
[15] = tested on: Escherichia coli; assay: Inhibition of LuxR-dependent quorum sensing activity in Escherichia coli MT102 harboring pJBA132 assessed as inhibition of OHHL-induced GFP expression at 500 uM measured after 24 hrs by fluorescence assay relative to control
[16] = tested on: Escherichia coli; assay: Growth inhibition of Escherichia coli MT102 at 2 mM after 8 hrs relative to control; settings: MT102, 8 h, read-out: GI
[17] = tested on: Pseudomonas aeruginosa; assay: Growth inhibition of Pseudomonas aeruginosa MH602 at 2 mM after 24 hrs relative to control; settings: MH602, 24 h, read-out: GI
[18] = tested on: Escherichia coli; assay: Inhibition of LuxR-dependent quorum sensing activity in Escherichia coli MT102 harboring pJBA132 assessed as inhibition of OHHL-induced GFP expression at 1 mM measured after 24 hrs by fluorescence assay relative to control
[19] = tested on: Pseudomonas aeruginosa; assay: Growth inhibition of Pseudomonas aeruginosa MH602 at 500 uM after 8 hrs relative to control; settings: MH602, 8 h, read-out: GI
[20] = tested on: Pseudomonas aeruginosa; assay: Inhibition of LasR-dependent quorum sensing activity in Pseudomonas aeruginosa MH602 harboring GFP-fused […] LasB promoter assessed as inhibition of 3-oxo-dodecanoyl HSL-induced GFP expression at 2 mM measured after 24 hrs by fluorescence assay relative to control
[21] = tested on: Escherichia coli; assay: Inhibition of LuxR-dependent quorum sensing activity in Escherichia coli MT102 harboring pJBA132 assessed as inhibition of OHHL-induced GFP expression at 1 mM measured after 8 hrs by fluorescence assay relative to control
[22] = tested on: Escherichia coli; assay: Growth inhibition of Escherichia coli MT102 at 1 mM after 24 hrs relative to control; settings: MT102, 24 h, read-out: GI
[23] = tested on: Pseudomonas aeruginosa; assay: Growth inhibition of Pseudomonas aeruginosa MH602 at 500 uM after 24 hrs relative to control; settings: MH602, 24 h, read-out: GI
[24] = tested on: Escherichia coli; assay: Inhibition of LuxR-dependent quorum sensing activity in Escherichia coli MT102 harboring pJBA132 assessed as inhibition of OHHL-induced GFP expression at 2 mM measured after 8 hrs by fluorescence assay relative to control
[25] = tested on: Pseudomonas aeruginosa; assay: Growth inhibition of Pseudomonas aeruginosa MH602 at 1 mM after 24 hrs relative to control; settings: MH602, 24 h, read-out: GI
[26] = tested on: Pseudomonas aeruginosa; assay: Inhibition of LasR-dependent quorum sensing activity in Pseudomonas aeruginosa MH602 harboring GFP-fused […] LasB promoter assessed as inhibition of 3-oxo-dodecanoyl HSL-induced GFP expression at 2 mM measured after 8 hrs by fluorescence assay relative to control
[27] = tested on: Pseudomonas aeruginosa; assay: Inhibition of LasR-dependent quorum sensing activity in Pseudomonas aeruginosa MH602 harboring GFP-fused […] LasB promoter assessed as inhibition of 3-oxo-dodecanoyl HSL-induced GFP expression at 1 mM measured after 8 hrs by fluorescence assay relative to control

Compound	inhibition at 2000 µM [1]	inhibition [2]	inhibition [3]	inhibition at 1000 µM [4]	growth inhibition (GI) [5]	inhibition at 1000 µM [6]	inhibition [7]	inhibition at 500 µM [9]	inhibition [10]	inhibition [11]	inhibition at 500 µM [12]	inhibition at 2000 µM [13]	inhibition [14]	inhibition [15]	inhibition at 2000 µM [16]	inhibition at 2000 µM [17]	inhibition [18]	inhibition at 500 µM [19]	inhibition [20]	inhibition [21]	other results
CC(=O)OC[C@H]1O[C@@H](OC(C)=O)[C@H](NC(=O)Cc2ccc(Cl)cc2)[C@@H](OC(C)=O)[C@@H]1OC(C)=O	0%	13.3%	5.2%	0%	Non-Toxic	0%	1.4%	0%	17.8%	16.5%	0%	0%	9.3%	1.3%	0%	0%	8.5%	0%	16.7%	4.2%	inhibition [8]: 14.8%; inhibition at 1000 µM [22]: 0%; inhibition at 500 µM [23]: 3.4%; inhibition [24]: 3.7%; inhibition at 1000 µM [25]: 0%
CCCC(=O)N[C@@H]1[C@@H](O)[C@H](O)[C@@H](CO)O[C@H]1O	29.8%	10.7%	51.7%	0%	Non-Toxic	34.5%	13.5%	13.5%	22.4%	97.5%	37.9%	10.7%	10.6%	46.5%	83.6%	4.4%	93.5%	8.9%	13.4%	92.7%	inhibition [26]: 79.1%; inhibition [27]: 22.5%; inhibition at 1000 µM [22]: 13.9%; inhibition at 500 µM [23]: 5.9%; inhibition [24]: 98.4%; inhibition at 1000 µM [25]: 0%
CCCC(=O)N[C@H]1[C@H](OC(C)=O)O[C@H](COC(C)=O)[C@@H](OC(C)=O)[C@@H]1OC(C)=O	0%	2.5%	10.1%	0.9%	Non-Toxic	0%	3.6%	3%	7.8%	23.4%	9.4%	0%	1.5%	2.1%	0%	0%	4.4%	3.4%	22.2%	21.9%	inhibition [26]: 10.8%; inhibition [27]: 11%; inhibition at 1000 µM [22]: 5%; inhibition at 500 µM [23]: 0%; inhibition [24]: 6.1%; inhibition at 1000 µM [25]: 0%
CC(=O)OC[C@H]1O[C@@H](OC(C)=O)[C@H](NC(=O)Cc2ccc(Br)cc2)[C@@H](OC(C)=O)[C@@H]1OC(C)=O	0%	11.2%	8.4%	0%	Non-Toxic	0%	4.4%	0%	26.2%	71.2%	0%	0%	0.8%	8.5%	0%	0%	36.1%	0%	13.1%	5.1%	inhibition [8]: 10%; inhibition [26]: 3.2%; inhibition [27]: 6.8%; inhibition at 1000 µM [22]: 0%; inhibition at 500 µM [23]: 0%; inhibition [24]: 8.1%; inhibition at 1000 µM [25]: 0%
